Experimental data reported in patent US20250092056A1, “URACIL DERIVATIVES HAVING VIRUS REPLICATION INHIBITORY ACTIVITY AND PHARMACEUTICAL COMPOSITION COMPRISING THE SAME” (Shionogi & Co., Ltd., priority 2022, published 2025).
pEC50, pIC50: −log10 of the molar value. “And” between values parts separate entries of the source, which are not always exact repeats. Equal entries are not always repeated. Where two headings read alike, the source gives them in different places.

Legend:
SARS-CoV-2 = test: Cytopathic effect (CPE) suppression effect confirmation test using HEK293T/ACE2-TMPRSS2 cells; type: cell-based
[1] = target: Recombinant SARS-CoV-2 3CL Protease (Severe acute respiratory syndrome coronavirus 2 (2019-nCoV) (SARS-CoV-2), UniProt P0DTD1); test: biochemical; type: biochemical; details: 50% SARS-CoV-2 3CL protease inhibitory concentration; read-out: IC50
[2] = Severe acute respiratory syndrome coronavirus 2, HEK-293T, 72 h, read-out: EC50 (50% SARS-CoV-2 infected cell death inhibitory concentration), class, HEK293T/ACE2-TMPRSS2 cells, CPE suppression, CellTiter-Glo 2.0 after 3 days culture
[3] = Severe acute respiratory syndrome coronavirus 2, HEK-293T, 72 h, HEK293T/ACE2-TMPRSS2 cells, CPE suppression, CellTiter-Glo 2.0 after 3 days culture, read-out: EC50 (50% SARS-CoV-2 infected cell death inhibitory concentration), class
[4] = Severe acute respiratory syndrome coronavirus 2, HEK-293T, 72 h, read-out: EC50 (50% SARS-CoV-2 infected cell death inhibitory concentration), HEK293T/ACE2-TMPRSS2 cells, CPE suppression, CellTiter-Glo 2.0 after 3 days culture

Row | Compound | pEC50 (SARS-CoV-2; [2]) | pIC50 [1] | pEC50 (SARS-CoV-2; [3]) | pEC50 (SARS-CoV-2; read-out: EC50 (50% SARS-CoV-2 infected cell death inhibitory concentration), class, HEK293T/ACE2-TMPRSS2 cells, CPE suppression, CellTiter-Glo 2.0 after 3 days culture) | pEC50 (SARS-CoV-2; [4])
1 | N#CCn1c(N2CC3(CCOC3)C2)c(Cc2cc(F)c(F)c(F)c2)c(=O)n(-c2nsc3ccccc23)c1=O [Compound I-143] | 5.30 to 6.00 | < 7.00 | – | – | –
2 | N#CCn1c(N2CC3(CCOC3)C2)c(Cc2cc(F)c(F)c(F)c2)c(=O)n(-c2cnc3cccnn23)c1=O [Compound I-144] | 6.00 to 7.00 | < 7.00 | – | – | –
3 | N#CCn1c(N2CC3(CCOC3)C2)c(Cc2cc(F)c(F)c(F)c2)c(=O)n(-c2cnc3cc(F)ccn23)c1=O [Compound I-145] | – | 7.00 to 8.00 | 6.00 to 7.00 | – | –
4 | N#CCn1c(N2C[C@H]3C[C@@H]2CN3)c(-c2ccc(F)c(Cl)c2)c(=O)n(-c2cncc(Cl)c2)c1=O [Compound I-146] | 6.00 to 7.00 | > 8.00 | – | – | –
5 | N#CCn1c(N2CC3(CCOC3)C2)c(-c2ccc(F)c(Cl)c2)c(=O)n(-c2cnc3cc(F)ccn23)c1=O [Compound I-147] | > 7.00 | > 8.00 | – | – | –
6 | N#CCn1c(N2CCC(F)(F)C2)c(-c2ccc(F)c(Cl)c2)c(=O)n(-c2cncc(Cl)c2)c1=O [Compound I-148] | > 7.00 | > 8.00 | – | – | –
7 | N#CCn1c(N2CC3(C2)CC(F)(F)C3)c(-c2ccc(F)c(Cl)c2)c(=O)n(-c2cnc3cc(F)ccn23)c1=O [Compound I-149] | > 7.00 | > 8.00 | – | – | –
8 | N#CCn1c(N2CCC(O)(C(F)(F)F)CC2)c(-c2ccc(F)c(Cl)c2)c(=O)n(-c2cnc3cc(F)ccn23)c1=O [Compound I-150] | > 7.00 | > 8.00 | – | – | –
9 | N#CCn1c(N2CC(F)(C3CC3)C2)c(-c2ccc(F)c(Cl)c2)c(=O)n(-c2cnc3cc(F)ccn23)c1=O [Compound I-151] | > 7.00 | > 8.00 | – | – | –
10 | N#CCn1c(N2CC3(CCCO3)C2)c(-c2ccc(F)c(Cl)c2)c(=O)n(-c2cnc3cc(F)ccn23)c1=O [Compound I-152] | > 7.00 | > 8.00 | – | – | –
11 | N#CCn1c(N2CCC(C(F)(F)F)CC2)c(-c2ccc(F)c(Cl)c2)c(=O)n(-c2cnc3cc(F)ccn23)c1=O [Compound I-153] | > 7.00 | > 8.00 | – | – | –
12 | N#CCn1c(N2Cc3ccccc3C2)c(Cc2cc(F)c(F)c(F)c2)c(=O)n(-c2nnc3ccccn23)c1=O [Compound I-156] | – | 7.00 to 8.00 | > 7.00 | – | –
13 | Cn1c(-n2c(=O)c(Cc3cc(F)c(F)c(F)c3)c(N3Cc4ccccc4C3)n(CC#N)c2=O)cc(=O)n1C [Compound I-157] | 5.30 to 6.00 | < 7.00 | – | – | –
14 | Cc1cc(-n2c(=O)c(Cc3cc(F)c(F)c(F)c3)c(N3Cc4ccccc4C3)n(CC#N)c2=O)cc(=O)[nH]1 [Compound I-159] | – | 7.00 to 8.00 | 6.00 to 7.00 | – | –
15 | Cc1cnnc(-n2c(=O)c(-c3ccc(F)c(Cl)c3)c(N3CC4(CCOC4)C3)n(CC#N)c2=O)c1 [Compound I-160] | > 7.00 | > 8.00 | – | – | –
16 | Cc1cc(-n2c(=O)c(-c3ccc(F)c(Cl)c3)c(N3CC4(CCOCC4)C3)n(CC#N)c2=O)cc(=O)[nH]1 [Compound I-161] | 5.30 to 6.00 | > 8.00 | – | – | –
17 | Cc1cc(-n2c(=O)c(-c3ccc(F)c(Cl)c3)c(N3CCC(C(F)(F)F)CC3)n(CC#N)c2=O)cc(=O)[nH]1 [Compound I-162] | – | 7.00 to 8.00 | 6.00 to 7.00 | – | –
18 | Cc1cc(-n2c(=O)c(-c3ccc(F)c(Cl)c3)c(N3CC4(C3)CC(F)(F)C4)n(CC#N)c2=O)cc(=O)[nH]1 [Compound I-163] | 6.00 to 7.00 | > 8.00 | – | – | –
19 | Cc1[nH]ncc1-n1c(=O)c(Cc2cc(F)c(F)c(F)c2)c(N2Cc3ccccc3C2)n(CC#N)c1=O [Compound I-164] | > 7.00 | < 7.00 | – | 6.00 to 7.00 | –
20 | N#CCn1c(N2Cc3ccccc3C2)c(C(=O)c2cc(F)c(F)c(F)c2)c(=O)n(-c2cncc(Cl)c2)c1=O [Compound I-165] | – | 5.42 | – | – | 6.64
21 | CC1(C)CCN(c2c(-c3ccc(F)c(Cl)c3)c(=O)n(-c3cc4n(c(=O)c3)CCC4)c(=O)n2CC#N)CC1 [Compound I-166] | 5.30 to 6.00 | < 7.00 | – | – | –
22 | N#CCn1c(N2Cc3ccccc3C2)c(Sc2cc(F)c(F)c(F)c2)c(=O)n(-c2cncc(Cl)c2)c1=O [Compound I-167] | – | 7.31 | – | – | 7.58
23 | N#CCn1c(-c2cc3ccccc3s2)c(Sc2cc(F)c(F)c(F)c2)c(=O)n(-c2cncc(Cl)c2)c1=O [Compound I-168] | – | 7.00 to 8.00 | > 7.00 | – | –

Row | Compound | pEC50 (SARS-CoV-2; [2]) | pIC50 [1] | pEC50 (SARS-CoV-2; [3]) | pEC50 (SARS-CoV-2; read-out: EC50 (50% SARS-CoV-2 infected cell death inhibitory concentration), class, HEK293T/ACE2-TMPRSS2 cells, CPE suppression, CellTiter-Glo 2.0 after 3 days culture) | pEC50 (SARS-CoV-2; [4])
24 | N#CCn1c(N2CCC(F)(F)CC2)c(-c2cccc(C#N)c2)c(=O)n(-c2cncc(Cl)c2)c1=O [Compound I-169] | – | 7.00 to 8.00 | > 7.00 | – | –
25 | Cc1cc(-n2c(=O)c(-c3ccc(F)c(Cl)c3)c(N3CCC(C)(C)CC3)n(CC#N)c2=O)cc(=O)[nH]1 [Compound I-170] | – | 7.00 to 8.00 | > 7.00 | – | –
26 | N#CCn1c(N2CC3(CCOC3)C2)c(-c2ccccc2)c(=O)n(-c2cncc(Cl)c2)c1=O [Compound I-171] | > 7.00 | > 8.00 | – | – | –
27 | Cc1cc(-n2c(=O)c(-c3ccc(F)c(Cl)c3)c(N3C[C@H]4CCCC[C@H]4C3)n(CC#N)c2=O)cc(=O)[nH]1 [Compound I-172] | > 7.00 | > 8.00 | – | – | –
28 | Cc1cc(-n2c(=O)c(-c3ccc(F)c(Cl)c3)c(-c3cc4ccccc4s3)n(CC#N)c2=O)cc(=O)[nH]1 [Compound I-173] | > 7.00 | > 8.00 | – | – | –
29 | N#CCn1c(N2CCC(F)(F)CC2)c(-c2cccc(Cl)c2)c(=O)n(-c2cncc(Cl)c2)c1=O [Compound I-174] | > 7.00 | > 8.00 | – | – | –
30 | CC1(C)CN(c2c(-c3cccc(C#N)c3)c(=O)n(-c3cncc(Cl)c3)c(=O)n2CC#N)C1 [Compound I-175] | > 7.00 | > 8.00 | – | – | –
31 | CC1(C)CCN(c2c(-c3cccc(C#N)c3)c(=O)n(-c3cncc(Cl)c3)c(=O)n2CC#N)CC1 [Compound I-176] | > 7.00 | > 8.00 | – | – | –
32 | N#CCn1c(N2CC3(CCOC3)C2)c(-c2cccc(C(F)F)c2)c(=O)n(-c2cncc(Cl)c2)c1=O [Compound I-177] | > 7.00 | > 8.00 | – | – | –
33 | CC1(C)[C@@H]2CN(c3c(-c4cccc(Cl)c4)c(=O)n(-c4cncc(Cl)c4)c(=O)n3CC#N)C[C@@H]21 [Compound I-178] | > 7.00 | > 8.00 | – | – | –
34 | N#CCn1c(N2CC3(CCOC3)C2)c(-c2cc(Cl)cc(C#N)c2)c(=O)n(-c2cncc(Cl)c2)c1=O [Compound I-179] | > 7.00 | > 8.00 | – | – | –
35 | N#CCn1c(N2CC3(CCOC3)C2)c(-c2cc(F)cc(Cl)c2)c(=O)n(-c2cncc(Cl)c2)c1=O [Compound I-180] | > 7.00 | > 8.00 | – | – | –
36 | N#CCn1c(N2CC3(CCOC3)C2)c(-c2ccc(F)c(Cl)c2)c(=O)n(-c2cncc(Cl)c2)c1=O [Compound I-181] | > 7.00 | > 8.00 | – | – | –
37 | N#CCn1c(N2CC3(CCOC3)C2)c(-c2cccc(Cl)c2)c(=O)n(-c2cncc(Cl)c2)c1=O [Compound I-182] | – | 9.40 | – | – | 8.77
38 | Cc1cc(-n2c(=O)c(-c3ccc(F)c(Cl)c3)c(-c3ccc(C4CC4)cc3)n(CC#N)c2=O)cc(=O)[nH]1 [Compound I-183] | > 7.00 | 7.00 to 8.00 and > 8.00 | – | – | –
39 | Cc1cc(-n2c(=O)c(-c3ccc(F)c(Cl)c3)c(C#CC3CC3)n(CC#N)c2=O)cc(=O)[nH]1 [Compound I-184] | 6.00 to 7.00 | < 7.00 | – | – | –
40 | N#CCc1c(N2Cc3ccccc3C2)n(Cc2cc(F)c(F)c(F)c2)c(=O)n(-c2cncc(Cl)c2)c1=O [Compound I-185] | – | 7.57 | – | – | 7.39
41 | Cc1cc(-n2c(=O)c(-c3ccc(F)c(Cl)c3)c(N3CC4(CCOC4)C3)n(CC#N)c2=O)cnn1 [Compound I-188] | – | 7.00 to 8.00 | 6.00 to 7.00 | – | –
42 | Cc1cc(-n2c(=O)c(-c3ccc(F)c(Cl)c3)c(-c3nc4ccccc4s3)n(CC#N)c2=O)cc(=O)[nH]1 [Compound I-189] | > 7.00 | > 8.00 | – | – | –
43 | N#CCn1c(N2CC3(CCOC3)C2)c(-c2ccc(F)c(Cl)c2)c(=O)n(-c2cncc(C(F)(F)F)n2)c1=O [Compound I-190] | > 7.00 | > 8.00 | – | – | –
44 | N#CCn1c(N2CC3(CCOC3)C2)c(-c2ccc(F)c(Cl)c2)c(=O)n(-c2cncc(Cl)n2)c1=O [Compound I-191] | > 7.00 | > 8.00 | – | – | –
45 | Cc1cncc(-n2c(=O)c(-c3ccc(F)c(Cl)c3)c(N3CC4(CCOC4)C3)n(CC#N)c2=O)n1 [Compound I-192] | > 7.00 | > 8.00 | – | – | –
